In US20250144067A1, “PERSONALIZED STARVATION THERAPY FOR CANCER” (Faeth Therapeutics, Inc., priority 2021, published 2025):
Counter-ions that a name gives are not always drawn. Like-named read-outs stand apart in the source and are kept apart here.

Legend:
[1] = tested on: NCI-H292 lung cancer cells; experiment: FDA drug screening, complete media vs cholesterol-free media without statin (TABLE 1); assay type: cell-based, human
[2] = tested on: NCI-H292 lung cancer cells; experiment: FDA drug screening, complete media vs cholesterol-free media with simvastatin (TABLE 2); assay type: cell-based, human
[3] = Complete minus Cholesterol-free, greater than 0 enhanced anti-cancer activity, about 0 neutral, below 0 antagonist
[4] = NCI-H292 cells, FDA drug library screen, cholesterol-free media without statin
[5] = NCI-H292 cells, FDA drug library screen, complete media
[6] = NCI-H292 cells, FDA drug library screen, cholesterol-free media with simvastatin 0.04 μM
[7] = complete media vs cholesterol-free media + simvastatin (0.04 μM), >0 enhanced anti-cancer activity, about 0 neutral, <0 antagonist
[8] = Complete minus Cholesterol-free, >0 enhanced anti-cancer activity, about 0 neutral, <0 antagonist
[9] = NCI-H292 cells, cholesterol-free media without statin
[10] = NCI-H292 cells, cholesterol-free media with simvastatin 0.04 μM, FDA drug library screen (TABLE 2)
[11] = NCI-H292 cells, complete media, FDA drug library screen (TABLE 2)
[12] = complete media minus cholesterol-free media + simvastatin (0.04 μM), >0 enhanced anti-cancer activity, about 0 neutral, <0 antagonist
[13] = Complete minus Cholesterol-free, […]
[14] = complete media minus cholesterol-free media + simvastatin, […]
[15] = complete vs cholesterol-free media, […]
[16] = complete media minus cholesterol-free media + simvastatin (0.04 μM), […]
[17] = NCI-H292 cells, FDA library drug in cholesterol-free media with simvastatin 0.04 μM
[18] = NCI-H292 cells, FDA library drug in complete media
[19] = complete media minus cholesterol-free media + simvastatin, >0 enhanced anti-cancer activity, about 0 neutral, <0 antagonist
[20] = NCI-H292 cells, cholesterol-free media without statin, FDA drug library screen
[21] = NCI-H292 cells, complete media, FDA drug library screen
[22] = NCI-H292 cells, drug in cholesterol-free media with simvastatin 0.04 μM
[23] = NCI-H292 cells, drug in complete media
[24] = Complete minus Cholesterol-free, greater than 0 enhanced anti-cancer activity, about 0 neutral, below 0 antagonists
[25] = NCI-H292 cells in cholesterol-free media without statin
[26] = NCI-H292 cells in complete media
[27] = complete vs cholesterol-free media, greater than 0 enhanced anti-cancer activity, about 0 neutral, below 0 antagonists
[28] = NCI-H292 cells, cholesterol-free media with simvastatin 0.04 μM, cell growth value in FDA drug screen
[29] = NCI-H292 cells, complete media, cell growth value in FDA drug screen
[30] = complete vs cholesterol-free media, >0 enhanced anti-cancer activity, about 0 neutral, <0 antagonist

COc1cc2c(c(OC)c1OC)-c1ccc(OC)c(=O)cc1[C@@H](NC(C)=O)CC2 [Colchicine]
Cholesterol-free [1]: 0.1135 | Complete [1]: 0.07073 | Difference [1]: −0.04 | Cholesterol-free media + simvastatin (0.04 μM) [2]: 0.1971 | Complete Media [2]: 0.2205 | Difference [2]: 0.02

CC1(C)[C@@H](O[C@H]2O[C@H](C(=O)O)[C@@H](O)[C@H](O)[C@H]2O[C@@H]2O[C@H](C(=O)O)[C@@H](O)[C@H](O)[C@H]2O)CC[C@]2(C)[C@H]3C(=O)C=C4[C@@H]5C[C@@](C)(C(=O)O)CC[C@]5(C)CC[C@@]4(C)[C@]3(C)CC[C@@H]12 [Glycyrrhizic acid]
Difference [1, 3]: −0.08 | Cholesterol-free [1, 4]: 1.146 | Complete [1, 5]: 1.061 | Cholesterol-free media + simvastatin (0.04 μM) [2, 6]: 1.042 | Complete Media [2, 5]: 0.907 | Difference [2, 7]: −0.13

Nc1nc(O)c2ncn(COC(CO)CO)c2n1 [Ganciclovir (sodium)]
Difference [1, 8]: −0.19 | Cholesterol-free [1, 9]: 0.9099 | Complete ([1]; NCI-H292 cells, complete media): 0.7218 | Cholesterol-free media + simvastatin (0.04 μM) [2, 10]: 1.423 | Complete Media [2, 11]: 1.395 | Difference [2, 12]: −0.03

Gadoxetate (Disodium)
Difference [1, 13]: −0.26 | Cholesterol-free [1, 9]: 1.164 | Complete ([1]; NCI-H292 cells, complete media): 0.9023 | Cholesterol-free media + simvastatin (0.04 μM) [2, 6]: 1.553 | Complete Media [2, 5]: 1.778 | Difference [2, 14]: 0.22

Rivastigmine (tartrate)
Cholesterol-free [1, 9]: 1.242 | Complete ([1]; NCI-H292 cells, complete media): 0.9137 | Difference [1, 15]: −0.33 | Cholesterol-free media + simvastatin (0.04 μM) [2, 10]: 1.478 | Complete Media [2, 11]: 1.417 | Difference [2, 16]: −0.06

O=C1[C@@H]2[C@H]3CC[C@H](C3)[C@@H]2C(=O)N1C[C@@H]1CCCC[C@H]1CN1CCN(c2nsc3ccccc23)CC1 [Lurasidone (Hydrochloride)]
Difference [1, 8]: −0.27 | Cholesterol-free [1, 9]: 1.115 | Complete ([1]; NCI-H292 cells, complete media): 0.8426 | Cholesterol-free media + simvastatin (0.04 μM) [2, 10]: 0.8431 | Complete Media [2, 11]: 0.8046 | Difference [2, 12]: −0.04

CCOc1ccc(Cc2cc([C@@H]3O[C@H](CO)[C@@H](O)[C@H](O)[C@H]3O)ccc2Cl)cc1 [Dapagliflozin]
Difference [1, 3]: −0.18 | Cholesterol-free [1, 4]: 1.052 | Complete [1, 5]: 0.875 | Cholesterol-free media + simvastatin (0.04 μM) [2, 17]: 1.024 | Complete Media [2, 18]: 0.6919 | Difference [2, 7]: −0.33

Carbinoxamine maleate salt
Difference [1, 8]: −0.20 | Cholesterol-free [1, 9]: 1.129 | Complete ([1]; NCI-H292 cells, complete media): 0.9247 | Cholesterol-free media + simvastatin (0.04 μM) [2, 6]: 0.757 | Complete Media [2, 5]: 1.12 | Difference [2, 19]: 0.36

CCCCC[C@H](O)CC[C@@H]1[C@H]2Cc3cccc(OCC(=O)O)c3C[C@H]2C[C@H]1O [Treprostinil (sodium)]
Difference [1, 8]: −0.02 | Cholesterol-free [1, 20]: 1.017 | Complete [1, 21]: 0.9998 | Cholesterol-free media + simvastatin (0.04 μM) [2, 22]: 1.119 | Complete Media [2, 23]: 0.898 | Difference [2, 7]: −0.22

CC(=O)O[C@]1(C(C)=O)CC[C@H]2[C@@H]3C=C(Cl)C4=CC(=O)CC[C@]4(C)[C@H]3CC[C@@]21C [Chlormadinone acetate]
Difference [1, 24]: −0.74 | Cholesterol-free [1, 25]: 1.695 | Complete [1, 26]: 0.9505 | Cholesterol-free media + simvastatin (0.04 μM) [2, 10]: 1.079 | Complete Media [2, 11]: 1.06 | Difference [2, 12]: −0.02

COc1cc(NS(C)(=O)=O)ccc1Nc1c2ccccc2nc2ccccc12 [Amsacrine (hydrochloride)]
Difference [1, 8]: 0.00 | Cholesterol-free [1, 20]: 0.2374 | Complete [1, 21]: 0.2416 | Cholesterol-free media + simvastatin (0.04 μM) [2, 17]: 0.8278 | Complete Media [2, 18]: 0.3873 | Difference [2, 7]: −0.44

O=C(O)c1cc(=O)c2ccccc2o1 [Chromocarb]
Cholesterol-free [1, 9]: 1.221 | Complete ([1]; NCI-H292 cells, complete media): 0.8012 | Difference [1, 27]: −0.42 | Cholesterol-free media + simvastatin (0.04 μM) [2, 17]: 1.932 | Complete Media [2, 18]: 1.471 | Difference [2, 7]: −0.46

O=C(O)CCNC(=O)c1ccc(/N=N/c2ccc(O)c(C(=O)O)c2)cc1 [Balsalazide]
Cholesterol-free [1, 9]: 1.245 | Complete ([1]; NCI-H292 cells, complete media): 0.9198 | Difference [1, 27]: −0.33 | Cholesterol-free media + simvastatin (0.04 μM) [2, 28]: 1.228 | Complete Media [2, 29]: 1.264 | Difference [2, 19]: 0.04

N#Cc1nn(-c2c(Cl)cc(C(F)(F)F)cc2Cl)c(N)c1[S+]([O-])C(F)(F)F (centres unmarked) [Fipronil]
Difference [1, 13]: −0.22 | Cholesterol-free [1, 9]: 1.217 | Complete ([1]; NCI-H292 cells, complete media): 1 | Cholesterol-free media + simvastatin (0.04 μM) [2, 10]: 1.235 | Complete Media [2, 11]: 1.184 | Difference [2, 16]: −0.05

CC(C)(C#N)c1cc(Cn2cncn2)cc(C(C)(C)C#N)c1 [Anastrozole]
Difference [1, 8]: −0.28 | Cholesterol-free [1, 9]: 1.263 | Complete ([1]; NCI-H292 cells, complete media): 0.9847 | Cholesterol-free media + simvastatin (0.04 μM) [2, 10]: 1.07 | Complete Media [2, 11]: 1.045 | Difference [2, 12]: −0.02

N#Cc1ccc2[nH]cc(CCCCN3CCN(c4ccc5oc(C(N)=O)cc5c4)CC3)c2c1 [Vilazodone (Hydrochloride)]
Cholesterol-free [1, 9]: 1.019 | Complete ([1]; NCI-H292 cells, complete media): 0.6984 | Difference [1, 27]: −0.32 | Cholesterol-free media + simvastatin (0.04 μM) [2, 6]: 0.5785 | Complete Media [2, 5]: 0.8037 | Difference [2, 19]: 0.23

O=C1NCCN1CCN1CCC(c2cn(-c3ccc(F)cc3)c3ccc(Cl)cc23)CC1 [Sertindole]
Difference [1, 8]: −0.04 | Cholesterol-free [1, 20]: 0.5468 | Complete [1, 21]: 0.5035 | Cholesterol-free media + simvastatin (0.04 μM) [2, 6]: 0.7983 | Complete Media [2, 5]: 1.128 | Difference [2, 19]: 0.33

CCCSc1nc(N[C@@H]2C[C@H]2c2ccc(F)c(F)c2)c2nnn([C@@H]3C[C@H](OCCO)[C@@H](O)[C@H]3O)c2n1 [Ticagrelor]
Difference [1, 24]: −0.72 | Cholesterol-free [1, 25]: 1.589 | Complete [1, 26]: 0.8706 | Cholesterol-free media + simvastatin (0.04 μM) [2, 6]: 0.854 | Complete Media [2, 5]: 1.275 | Difference [2, 19]: 0.42

COc1ccc(C(C)=O)c(O)c1 [Paeonol]
Difference [1, 8]: −0.29 | Cholesterol-free [1, 9]: 1.074 | Complete ([1]; NCI-H292 cells, complete media): 0.7804 | Cholesterol-free media + simvastatin (0.04 μM) [2, 28]: 1.081 | Complete Media [2, 29]: 1.107 | Difference [2, 19]: 0.03

CCOC(=O)/C=C(C)/C=C/C=C(C)/C=C/c1c(C)cc(OC)c(C)c1C [Etretinate]
Difference [1, 13]: −0.71 | Cholesterol-free [1, 25]: 1.459 | Complete [1, 26]: 0.7469 | Cholesterol-free media + simvastatin (0.04 μM) [2, 6]: 0.824 | Complete Media [2, 5]: 1.055 | Difference [2, 14]: 0.23

O=C(CNC(=O)c1ccc(C2=NOC(c3cc(Cl)cc(C(F)(F)F)c3)(C(F)(F)F)C2)c2ccccc12)NCC(F)(F)F (centres unmarked) [Afoxolaner]
Cholesterol-free [1, 20]: 1.008 | Complete [1, 21]: 1.19 | Difference [1, 15]: 0.18 | Cholesterol-free media + simvastatin (0.04 μM) [2, 6]: 2.42 | Difference [2, 16]: −1.05

CNC(=O)c1ccccc1Sc1ccc2c(/C=C/c3ccccn3)n[nH]c2c1 [Axitinib]
Cholesterol-free [1, 20]: 0.7104 | Complete [1, 21]: 1.034 | Difference [1, 30]: 0.32 | Cholesterol-free media + simvastatin (0.04 μM) [2, 22]: 0.9239 | Complete Media [2, 23]: 0.7152 | Difference [2, 7]: −0.21

CC(C)C(=O)Oc1ccc(CO)cc1[C@H](CCN(C(C)C)C(C)C)c1ccccc1 [Fesoterodine]
Cholesterol-free [1, 20]: 0.8973 | Complete [1, 21]: 1.535 | Difference [1, 30]: 0.64 | Cholesterol-free media + simvastatin (0.04 μM) [2, 17]: 1.104 | Complete Media [2, 18]: 0.8265 | Difference [2, 7]: −0.28

NC(CO)C(=O)NNCc1ccc(O)c(O)c1O (centres unmarked) [Benserazide (hydrochloride)]
Difference [1, 8]: 0.01 | Cholesterol-free [1, 20]: 1.039 | Complete [1, 21]: 1.047 | Cholesterol-free media + simvastatin (0.04 μM) [2, 6]: 1.132 | Complete Media [2, 5]: 1.052 | Difference [2, 7]: −0.08

CC(=O)Oc1cc2c(s1)CCN(C(C(=O)C1CC1)c1ccccc1F)C2 (centres unmarked) [Prasugrel]
Cholesterol-free [1, 20]: 1.483 | Complete [1, 21]: 1.769 | Difference [1, 30]: 0.29 | Cholesterol-free media + simvastatin (0.04 μM) [2, 6]: 1.012 | Complete Media [2, 5]: 0.9091 | Difference [2, 7]: −0.10

CNCC[C@H](Oc1cccc2ccccc12)c1cccs1 [Duloxetine (hydrochloride)]
Cholesterol-free [1]: 1.331 | Complete [1]: 1.434 | Difference [1]: 0.10 | Cholesterol-free media + simvastatin (0.04 μM) [2]: 1.089 | Complete Media [2]: 1.143 | Difference [2]: 0.05

O=C(O)CCC(=O)O [Succinic acid]
Cholesterol-free [1, 20]: 0.9807 | Complete [1, 21]: 1.143 | Difference [1, 30]: 0.16 | Cholesterol-free media + simvastatin (0.04 μM) [2, 10]: 1.729 | Complete Media [2, 11]: 1.686 | Difference [2, 12]: −0.04

CC(C)(C)NC(=O)[C@H]1CC[C@H]2[C@@H]3CC[C@H]4NC(=O)C=C[C@]4(C)[C@H]3CC[C@]12C [Finasteride]
Cholesterol-free [1, 9]: 1.209 | Complete ([1]; NCI-H292 cells, complete media): 0.7878 | Difference [1, 27]: −0.42 | Cholesterol-free media + simvastatin (0.04 μM) [2, 28]: 1.571 | Complete Media [2, 29]: 1.636 | Difference [2, 19]: 0.06
